# Tests used:
# [1] = target: T1, Relaxin-3 (RXFP3) (h) (agonist radioligand) (Homo sapiens, UniProt Q9NSD7); experiment: RXFP3 assay (Eurofins/leadHunter GPCR Biosensor cAMP Hunter); format: cell-based
# T1 sequence (Q9NSD7 1-469): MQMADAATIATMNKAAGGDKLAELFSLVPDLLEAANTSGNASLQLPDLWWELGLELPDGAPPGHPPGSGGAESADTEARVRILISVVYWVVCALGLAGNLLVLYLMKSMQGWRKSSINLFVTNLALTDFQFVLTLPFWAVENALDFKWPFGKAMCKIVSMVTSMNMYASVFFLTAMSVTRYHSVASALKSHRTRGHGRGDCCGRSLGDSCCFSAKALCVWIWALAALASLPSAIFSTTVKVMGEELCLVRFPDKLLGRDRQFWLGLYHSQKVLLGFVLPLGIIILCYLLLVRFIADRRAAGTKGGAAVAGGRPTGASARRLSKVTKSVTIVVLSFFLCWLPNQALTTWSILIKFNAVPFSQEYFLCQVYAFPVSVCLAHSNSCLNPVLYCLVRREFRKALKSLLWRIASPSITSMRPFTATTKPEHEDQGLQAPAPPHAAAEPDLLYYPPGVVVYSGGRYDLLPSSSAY
# Description: Lauflumide is found to weakly bind with RXFP3 receptors (Study US073-0006869-Q Eurofins/leadHunter 8/1/19; unpublished data) (Table 1).
# In these assays' compounds were tested in agonist and antagonist mode with the GPCR Biosensor Assays and match to this design:
# 1. cAMP Hunter cell lines were expanded from freezer stocks according to standard procedures.
# 2. Cells were seeded in a total volume of 20 μL into white walled, 384-well microplates and incubated at 37° C. for the appropriate time prior to testing.
# 3. cAMP modulation was determined using the DiscoverX HitHunter cAMP XS+ assay.
# 1. For agonist determination, cells were incubated with sample in the presence of EC80 forskolin to induce response.
# 2. Media was aspirated from cells and replaced with 15 μL 2:1 HBSS/10 mM Hepes: cAMP XS+ Ab reagent.
# 3. […]
# 2. Microplates were read following signal generation with a PerkinElmer Envision™ instrument for chemiluminescent signal detection.
# 1. Compound activity was analyzed using CBIS data analysis suite (ChemInnovation, CA).
# 5. For Gi agonist mode assays, percentage activity is calculated using the following formula: […]
# 8. For Gi antagonist or negative allosteric mode assays, percentage inhibition is calculated using the following formula: % Inhibition=100%×(mean RLU of test sample−mean RLU of EC80 control)/(mean RLU of forskolin positive control−mean RLU of […]
# [2] = target: T2, Histamine 2 (h) (H2) (agonist radioligand) (Homo sapiens, UniProt P25021); experiment: Radioligand binding panel (Eurofins CEREP), histamine H2; conditions: % inhibition of control specific binding
# T2 construct: Eurofins CEREP (contract study 100014859)
# T2 sequence (P25021 whole entry): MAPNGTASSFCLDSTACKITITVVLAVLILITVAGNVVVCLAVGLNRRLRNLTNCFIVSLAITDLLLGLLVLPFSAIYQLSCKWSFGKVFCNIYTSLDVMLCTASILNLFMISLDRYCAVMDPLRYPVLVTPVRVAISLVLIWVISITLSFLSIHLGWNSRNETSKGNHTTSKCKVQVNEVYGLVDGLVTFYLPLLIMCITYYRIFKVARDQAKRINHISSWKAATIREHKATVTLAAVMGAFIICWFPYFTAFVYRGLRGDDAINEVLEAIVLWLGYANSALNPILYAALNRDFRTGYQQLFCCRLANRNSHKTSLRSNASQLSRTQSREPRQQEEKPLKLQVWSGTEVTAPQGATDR
# Description: (§1) Lauflumide is tested at 10^-5 M, calculated as a % inhibition of control specific binding of a radioactively labeled ligand specific for each target.
# (§2) This binding profile panel was broadly defined with roughly an equal number of selective, central and peripheral therapeutically relevant targets, including native animal tissues, radioligands and specific enzymes involved in cell cycle regulation in accordance with Eurofins Standard Operating Procedure (www.eurofins.fr).
# (§3) For radioligand binding experiments, the half maximal inhibitory concentration (IC50) and the half maximal effective concentration (EC50) values were determined (via computer software) by nonlinear regression analysis of the competition curves using Hill equation curve fitting. The inhibition constants (Ki) were calculated using the Cheng-Prusoff equation (Ki=IC50/(1+(L/KD)), where L is the concentration of radioligand in the assay, and KD is the affinity of the radioligand for the receptor.
# (§4) The results are expressed as a % control specific binding ([measured specific binding/control specific binding]×100) and as a % inhibition of control specific binding (100−[(measured specific binding/control specific binding)×100]) obtained in the presence of the test compounds. […]
# [3] = target: T3, NPY1 (h) (reverse agonist radioligand) (Homo sapiens, UniProt P25929); experiment: Radioligand binding panel (Eurofins CEREP), NPY1; conditions: % inhibition of control specific binding
# T3 construct: Eurofins CEREP (contract study 100014859)
# T3 sequence (P25929 1-384): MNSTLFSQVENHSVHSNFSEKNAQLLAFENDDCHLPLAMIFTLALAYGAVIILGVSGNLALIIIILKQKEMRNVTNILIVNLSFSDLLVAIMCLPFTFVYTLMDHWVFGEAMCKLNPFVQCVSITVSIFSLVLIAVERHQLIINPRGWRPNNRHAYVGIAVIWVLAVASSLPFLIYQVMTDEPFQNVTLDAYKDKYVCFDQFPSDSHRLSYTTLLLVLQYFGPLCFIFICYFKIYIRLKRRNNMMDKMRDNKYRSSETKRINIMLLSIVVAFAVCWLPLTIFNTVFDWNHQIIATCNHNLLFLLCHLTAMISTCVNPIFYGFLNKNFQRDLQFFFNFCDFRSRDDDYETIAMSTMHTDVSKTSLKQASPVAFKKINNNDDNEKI
# Description: as §1, §2, §3, §4
smiles,measurement,setting,value
"NC(=O)C[S@@+]([O-])C(c1ccc(F)cc1)c1ccc(F)cc1 [Lauflumide, 2-[(R)-((bis(4-fluorophenyl)methane)sulfinyl)]acetamide]",% Inhibition at 10^−5M,[1],23.9%
same,% Inhibition at 10^−5M,[2],46.6%
same,% Inhibition at 10^−5M,[3],27.3%
